Laboratory results: ChEMBL document CHEMBL5303573, “Mapping human microbiome drug metabolism by gut bacteria and their genes” (Nature, 2019)

Legend:
[1] = The drug is tested on Bifidobacterium ruminantium strain: fecal isolate for biotransformation. The drug concentrations were measured before and after a 12-h incubation by liquid-chromatography-coupled mass spectrometry (LC–MS); settings: 2 µM
[2] = The drug is tested on Bacteroides cellulosilyticus strain: DSM14838 for biotransformation. The drug concentrations were measured before and after a 12-h incubation by liquid-chromatography-coupled mass spectrometry (LC–MS); settings: 2 µM
[3] = The drug is tested on Bacteroides ovatus strain: ATCC8483 for biotransformation. The drug concentrations were measured before and after a 12-h incubation by liquid-chromatography-coupled mass spectrometry (LC–MS); settings: 2 µM
[4] = The drug is tested on Bacteroides sp. WH2 strain: WH2 for biotransformation. The drug concentrations were measured before and after a 12-h incubation by liquid-chromatography-coupled mass spectrometry (LC–MS); settings: bacteroides sp. wh2, 12 h, 2 µM
[5] = The drug is tested on Bacteroides xylanisolvens strain: DSM18836 for biotransformation. The drug concentrations were measured before and after a 12-h incubation by liquid-chromatography-coupled mass spectrometry (LC–MS); settings: 2 µM
[6] = The drug is tested on Blautia luti strain: DSM14534 for biotransformation. The drug concentrations were measured before and after a 12-h incubation by liquid-chromatography-coupled mass spectrometry (LC–MS); assay type: ADME; design: dose 2 uM, timepoint 0 vs 12 hours; settings: 2 µM
[7] = The drug is tested on Coprococcus comes strain: ATCC27758 for biotransformation. The drug concentrations were measured before and after a 12-h incubation by liquid-chromatography-coupled mass spectrometry (LC–MS); assay type: ADME; design: dose 2 uM, timepoint 0 vs 12 hours; settings: 2 µM
[8] = The drug is tested on Dorea formicigenerans strain: ATCC27755 for biotransformation. The drug concentrations were measured before and after a 12-h incubation by liquid-chromatography-coupled mass spectrometry (LC–MS); settings: 2 µM
[9] = The drug is tested on Ruminococcus gnavus strain: ATCC29149 for biotransformation. The drug concentrations were measured before and after a 12-h incubation by liquid-chromatography-coupled mass spectrometry (LC–MS); settings: mediterraneibacter gnavus, 2 µM
[10] = The drug is tested on Subdoligranulum variabile strain: DSM15176 for biotransformation. The drug concentrations were measured before and after a 12-h incubation by liquid-chromatography-coupled mass spectrometry (LC–MS); settings: 2 µM
[11] = The drug is tested on Providencia stuartii strain: ATCC25827 for biotransformation. The drug concentrations were measured before and after a 12-h incubation by liquid-chromatography-coupled mass spectrometry (LC–MS); settings: 2 µM
[12] = bifidobacterium adolescentis, 12 h, 2 µM
[13] = bacteroides intestinalis, 12 h, 2 µM
[14] = segatella copri, 12 h, 2 µM
[15] = limosilactobacillus reuteri cf48-3a, 12 h, 2 µM
[16] = The drug is tested on Clostridium symbiosum strain: ATCC14940 for biotransformation. The drug concentrations were measured before and after a 12-h incubation by liquid-chromatography-coupled mass spectrometry (LC–MS); settings: 2 µM
[17] = The drug is tested on Eubacterium rectale strain: ATCC33656 for biotransformation. The drug concentrations were measured before and after a 12-h incubation by liquid-chromatography-coupled mass spectrometry (LC–MS); settings: agathobacter rectalis, 2 µM
[18] = The drug is tested on Eubacterium ventriosum strain: ATCC27560 for biotransformation. The drug concentrations were measured before and after a 12-h incubation by liquid-chromatography-coupled mass spectrometry (LC–MS); assay type: ADME; design: dose 2 uM, timepoint 0 vs 12 hours; settings: 2 µM
[19] = The drug is tested on Enterobacter cancerogenus strain: ATCC35316 for biotransformation. The drug concentrations were measured before and after a 12-h incubation by liquid-chromatography-coupled mass spectrometry (LC–MS); settings: 2 µM
[20] = enterocloster bolteae, 12 h, 2 µM
Description: The drug is tested on Clostridium bolteae strain: ATCCBAA-613 for biotransformation. The drug concentrations were measured before and after a 12-h incubation by liquid-chromatography-coupled mass spectrometry (LC–MS)

## COc1ccc(CCN(C)CCCC(C#N)(c2ccc(OC)c(OC)c2)C(C)C)cc1OC (centres undefined)
[1]
  Bacterial Biotransformation: Compound NOT metabolized
[2]
  Bacterial Biotransformation: Compound NOT metabolized
[3]
  Bacterial Biotransformation: Compound metabolized
[4]
  Bacterial Biotransformation: Compound NOT metabolized
[5]
  Bacterial Biotransformation: Compound metabolized
[6]
  Bacterial Biotransformation: Compound NOT metabolized
[7]
  Bacterial Biotransformation: Compound NOT metabolized
[8]
  Bacterial Biotransformation: Compound NOT metabolized
[9]
  Bacterial Biotransformation: Compound NOT metabolized
[10]
  Bacterial Biotransformation: Compound NOT metabolized
[11]
  Bacterial Biotransformation: Compound NOT metabolized
[12]
  Bacterial Biotransformation: Compound NOT metabolized
[13]
  Bacterial Biotransformation: Compound metabolized
[14]
  Bacterial Biotransformation: Compound metabolized
[15]
  Bacterial Biotransformation: Compound NOT metabolized

## Cc1nc(-c2ccc(OCC(C)C)c(C#N)c2)sc1C(=O)O [FEBUXOSTAT]
[1]
  Bacterial Biotransformation: Compound NOT metabolized
[3]
  Bacterial Biotransformation: Compound NOT metabolized
[4]
  Bacterial Biotransformation: Compound NOT metabolized
[5]
  Bacterial Biotransformation: Compound NOT metabolized
[6]
  Bacterial Biotransformation: Compound NOT metabolized
[16]
  Bacterial Biotransformation: Compound NOT metabolized
[7]
  Bacterial Biotransformation: Compound NOT metabolized
[8]
  Bacterial Biotransformation: Compound NOT metabolized
[17]
  Bacterial Biotransformation: Compound NOT metabolized
[18]
  Bacterial Biotransformation: Compound NOT metabolized
[9]
  Bacterial Biotransformation: Compound NOT metabolized
[10]
  Bacterial Biotransformation: Compound NOT metabolized
[19]
  Bacterial Biotransformation: Compound NOT metabolized
[11]
  Bacterial Biotransformation: Compound NOT metabolized
[12]
  Bacterial Biotransformation: Compound NOT metabolized
[13]
  Bacterial Biotransformation: Compound NOT metabolized
[20]
  Bacterial Biotransformation: Compound NOT metabolized
[15]
  Bacterial Biotransformation: Compound NOT metabolized

## CC(C)c1nc(CN(C)C(=O)N[C@H](C(=O)N[C@@H](Cc2ccccc2)C[C@H](O)[C@H](Cc2ccccc2)NC(=O)OCc2cncs2)C(C)C)cs1 [RITONAVIR]
[1]
  Bacterial Biotransformation: Compound NOT metabolized
[2]
  Bacterial Biotransformation: Compound NOT metabolized
[3]
  Bacterial Biotransformation: Compound NOT metabolized
[4]
  Bacterial Biotransformation: Compound NOT metabolized
[5]
  Bacterial Biotransformation: Compound metabolized
[16]
  Bacterial Biotransformation: Compound NOT metabolized
[8]
  Bacterial Biotransformation: Compound NOT metabolized
[18]
  Bacterial Biotransformation: Compound NOT metabolized
[9]
  Bacterial Biotransformation: Compound NOT metabolized
[10]
  Bacterial Biotransformation: Compound NOT metabolized
[11]
  Bacterial Biotransformation: Compound NOT metabolized
[14]
  Bacterial Biotransformation: Compound NOT metabolized
[20]
  Bacterial Biotransformation: Compound NOT metabolized
[15]
  Bacterial Biotransformation: Compound NOT metabolized

## CCCCCNC(=N)N/N=C/c1c[nH]c2ccc(OC)cc12.O=C(O)/C=C\C(=O)O [TEGASEROD MALEATE]
[2]
  Bacterial Biotransformation: Compound NOT metabolized
[3]
  Bacterial Biotransformation: Compound NOT metabolized
[4]
  Bacterial Biotransformation: Compound NOT metabolized
[5]
  Bacterial Biotransformation: Compound NOT metabolized
[6]
  Bacterial Biotransformation: Compound NOT metabolized
[16]
  Bacterial Biotransformation: Compound NOT metabolized
[7]
  Bacterial Biotransformation: Compound NOT metabolized
[8]
  Bacterial Biotransformation: Compound NOT metabolized
[17]
  Bacterial Biotransformation: Compound NOT metabolized
[18]
  Bacterial Biotransformation: Compound NOT metabolized
[9]
  Bacterial Biotransformation: Compound NOT metabolized
[10]
  Bacterial Biotransformation: Compound NOT metabolized
[11]
  Bacterial Biotransformation: Compound NOT metabolized
[12]
  Bacterial Biotransformation: Compound NOT metabolized
[13]
  Bacterial Biotransformation: Compound NOT metabolized
[14]
  Bacterial Biotransformation: Compound NOT metabolized
[20]
  Bacterial Biotransformation: Compound NOT metabolized
[15]
  Bacterial Biotransformation: Compound NOT metabolized

## c1ccc2[nH]c(-c3cscn3)nc2c1 [THIABENDAZOLE]
[1]
  Bacterial Biotransformation: Compound NOT metabolized
[4]
  Bacterial Biotransformation: Compound NOT metabolized
[5]
  Bacterial Biotransformation: Compound NOT metabolized
[6]
  Bacterial Biotransformation: Compound NOT metabolized
[16]
  Bacterial Biotransformation: Compound NOT metabolized
[7]
  Bacterial Biotransformation: Compound NOT metabolized
[8]
  Bacterial Biotransformation: Compound NOT metabolized
[17]
  Bacterial Biotransformation: Compound NOT metabolized
[18]
  Bacterial Biotransformation: Compound NOT metabolized
[9]
  Bacterial Biotransformation: Compound NOT metabolized
[10]
  Bacterial Biotransformation: Compound NOT metabolized
[19]
  Bacterial Biotransformation: Compound NOT metabolized
[11]
  Bacterial Biotransformation: Compound NOT metabolized
[12]
  Bacterial Biotransformation: Compound NOT metabolized
[13]
  Bacterial Biotransformation: Compound NOT metabolized
[14]
  Bacterial Biotransformation: Compound NOT metabolized
[20]
  Bacterial Biotransformation: Compound NOT metabolized
[15]
  Bacterial Biotransformation: Compound NOT metabolized

## O=c1n(CCCN2CCN(c3cccc(Cl)c3)CC2)nc2ccccn12 [TRAZODONE]
[1]
  Bacterial Biotransformation: Compound NOT metabolized
[3]
  Bacterial Biotransformation: Compound NOT metabolized
[4]
  Bacterial Biotransformation: Compound NOT metabolized
[5]
  Bacterial Biotransformation: Compound NOT metabolized
[6]
  Bacterial Biotransformation: Compound NOT metabolized
[16]
  Bacterial Biotransformation: Compound NOT metabolized
[7]
  Bacterial Biotransformation: Compound NOT metabolized
[8]
  Bacterial Biotransformation: Compound NOT metabolized
[17]
  Bacterial Biotransformation: Compound NOT metabolized
[18]
  Bacterial Biotransformation: Compound NOT metabolized
[10]
  Bacterial Biotransformation: Compound NOT metabolized
[19]
  Bacterial Biotransformation: Compound NOT metabolized
[11]
  Bacterial Biotransformation: Compound NOT metabolized
[12]
  Bacterial Biotransformation: Compound NOT metabolized
[13]
  Bacterial Biotransformation: Compound NOT metabolized
[14]
  Bacterial Biotransformation: Compound NOT metabolized
[20]
  Bacterial Biotransformation: Compound NOT metabolized
[15]
  Bacterial Biotransformation: Compound NOT metabolized

## COc1cc(C(=O)NCc2ccc(OCCN(C)C)cc2)cc(OC)c1OC [TRIMETHOBENZAMIDE]
[2]
  Bacterial Biotransformation: Compound NOT metabolized
[3]
  Bacterial Biotransformation: Compound NOT metabolized
[4]
  Bacterial Biotransformation: Compound NOT metabolized
[5]
  Bacterial Biotransformation: Compound NOT metabolized
[6]
  Bacterial Biotransformation: Compound NOT metabolized
[16]
  Bacterial Biotransformation: Compound NOT metabolized
[7]
  Bacterial Biotransformation: Compound NOT metabolized
[8]
  Bacterial Biotransformation: Compound NOT metabolized
[18]
  Bacterial Biotransformation: Compound NOT metabolized
[9]
  Bacterial Biotransformation: Compound NOT metabolized
[10]
  Bacterial Biotransformation: Compound NOT metabolized
[11]
  Bacterial Biotransformation: Compound NOT metabolized
[12]
  Bacterial Biotransformation: Compound NOT metabolized
[13]
  Bacterial Biotransformation: Compound NOT metabolized
[14]
  Bacterial Biotransformation: Compound NOT metabolized
[20]
  Bacterial Biotransformation: Compound NOT metabolized
[15]
  Bacterial Biotransformation: Compound NOT metabolized

## COc1ccc(C(CN(C)C)C2(O)CCCCC2)cc1 (centres undefined) [VENLAFAXINE]
[1]
  Bacterial Biotransformation: Compound NOT metabolized
[3]
  Bacterial Biotransformation: Compound NOT metabolized
[4]
  Bacterial Biotransformation: Compound NOT metabolized
[5]
  Bacterial Biotransformation: Compound NOT metabolized
[6]
  Bacterial Biotransformation: Compound NOT metabolized
[16]
  Bacterial Biotransformation: Compound NOT metabolized
[8]
  Bacterial Biotransformation: Compound NOT metabolized
[17]
  Bacterial Biotransformation: Compound NOT metabolized
[18]
  Bacterial Biotransformation: Compound NOT metabolized
[9]
  Bacterial Biotransformation: Compound NOT metabolized
[10]
  Bacterial Biotransformation: Compound NOT metabolized
[19]
  Bacterial Biotransformation: Compound NOT metabolized
[11]
  Bacterial Biotransformation: Compound NOT metabolized
[12]
  Bacterial Biotransformation: Compound NOT metabolized
[13]
  Bacterial Biotransformation: Compound NOT metabolized
[14]
  Bacterial Biotransformation: Compound NOT metabolized
[20]
  Bacterial Biotransformation: Compound NOT metabolized
[15]
  Bacterial Biotransformation: Compound NOT metabolized

## C[C@@H](c1ncncc1F)[C@](O)(Cn1cncn1)c1ccc(F)cc1F [VORICONAZOLE]
[1]
  Bacterial Biotransformation: Compound NOT metabolized
[3]
  Bacterial Biotransformation: Compound NOT metabolized
[4]
  Bacterial Biotransformation: Compound NOT metabolized
[5]
  Bacterial Biotransformation: Compound metabolized
[6]
  Bacterial Biotransformation: Compound NOT metabolized
[16]
  Bacterial Biotransformation: Compound NOT metabolized
[7]
  Bacterial Biotransformation: Compound NOT metabolized
[8]
  Bacterial Biotransformation: Compound NOT metabolized
[17]
  Bacterial Biotransformation: Compound NOT metabolized
[18]
  Bacterial Biotransformation: Compound NOT metabolized
[9]
  Bacterial Biotransformation: Compound NOT metabolized
[10]
  Bacterial Biotransformation: Compound NOT metabolized
[19]
  Bacterial Biotransformation: Compound NOT metabolized
[11]
  Bacterial Biotransformation: Compound NOT metabolized
[12]
  Bacterial Biotransformation: Compound NOT metabolized
[14]
  Bacterial Biotransformation: Compound NOT metabolized
[20]
  Bacterial Biotransformation: Compound NOT metabolized
[15]
  Bacterial Biotransformation: Compound NOT metabolized
